Measurements taken from ChEMBL document CHEMBL1124546, “Synthesis of unsymmetrically substituted 1,4-bis[(aminoalkyl)amino]anthracene-9,10-diones as potential antileukemic agents” (1989).
In brackets after ≈: the same amount, converted by molar mass.

How the values were obtained:
[1] = Survivors of CDF1 mice on day 4 after 1st injection of compound at 12.5 mg/kg in six mice; 6/6; assay type: functional, Mus musculus
[2] = Survivors of CDF1 mice on day 4 after 1st injection of compound at 6.25 mg/kg in six mice; 6/6; assay type: functional, Mus musculus
[3] = system: P388; experiment: Percent ratio of the medium survival time for P388 murine leukemia in CDF1 mice at 25 mg/kg; assay type: functional, Mus musculus
[4] = Survivors of CDF1 mice on day 4 after 1st injection of compound at 3.12 mg/kg in six mice; 6/6; assay type: functional, Mus musculus
[5] = Survivors of CDF1 mice on day 4 after 1st injection of compound 25 at mg/kg in six mice; 6/6; assay type: functional, Mus musculus
[6] = system: P388; experiment: Percent ratio of the medium survival time for P388 murine leukemia in CDF1 mice at 6.25 mg/kg; assay type: functional, Mus musculus
[7] = system: L1210; experiment: Concentration required to inhibit the growth of L1210 leukemia cells; assay type: functional; conditions: Mus musculus, read-out: ED50 (the source's name)
[8] = system: P388; experiment: Percent ratio of the medium survival time for P388 murine leukemia in CDF1 mice at 12.5 mg/kg; assay type: functional, Mus musculus
[9] = system: P388; experiment: Percent ratio of the medium survival time for P388 murine leukemia in CDF1 mice at 3.12 mg/kg; assay type: functional, Mus musculus
[10] = (§1) Survivors of CDF1 mice on day 4 after 1st injection of compound at 40 mg/kg in six mice; 6/6; assay type: functional, Mus musculus
[11] = Survivors of CDF1 mice on day 4 after 1st injection of compound at 10 mg/kg in six mice; 6/6; assay type: functional, Mus musculus
[12] = (§2) Survivors of CDF1 mice on day 4 after 1st injection of compound 80 at mg/kg in six mice; 6/6; assay type: functional, Mus musculus
[13] = system: P388; experiment: Percent ratio of the medium survival time for P388 murine leukemia in CDF1 mice at 10 mg/kg; assay type: functional, Mus musculus
[14] = Survivors of CDF1 mice on day 4 after 1st injection of compound at 5 mg/kg in six mice; 6/6; assay type: functional, Mus musculus
[15] = system: P388; experiment: Percent ratio of the medium survival time for P388 murine leukemia in CDF1 mice at 5 mg/kg; assay type: functional, Mus musculus
[16] = system: P388; experiment: Percent ratio of the medium survival time for P388 murine leukemia in CDF1 mice at 20 mg/kg; assay type: functional, Mus musculus
[17] = system: P388; experiment: Percent ratio of the medium survival time for P388 murine leukemia in CDF1 mice at 80 mg/kg; assay type: functional, Mus musculus
[18] = system: P388; experiment: Percent ratio of the medium survival time for P388 murine leukemia in CDF1 mice at 40 mg/kg; assay type: functional, Mus musculus
[19] = Survivors of CDF1 mice on day 4 after 1st injection of compound at 20 mg/kg in six mice; 6/6; assay type: functional, Mus musculus
[20] = Survivors of CDF1 mice on day 4 after 1st injection of compound at 6 mg/kg in six mice; 6/6; assay type: functional, Mus musculus
[21] = Survivors of CDF1 mice on day 4 after 1st injection of compound at 3 mg/kg in six mice; 6/6; assay type: functional, Mus musculus
[22] = system: P388; experiment: Percent ratio of the medium survival time for P388 murine leukemia in CDF1 mice at 12 mg/kg; assay type: functional, Mus musculus
[23] = system: P388; experiment: Percent ratio of the medium survival time for P388 murine leukemia in CDF1 mice at 0.75 mg/kg; assay type: functional, Mus musculus
[24] = system: P388; experiment: Percent ratio of the medium survival time for P388 murine leukemia in CDF1 mice at 6 mg/kg; assay type: functional, Mus musculus
[25] = Survivors of CDF1 mice on day 4 after 1st injection of compound 12 at mg/kg in six mice; 6/6; assay type: functional, Mus musculus
[26] = system: P388; experiment: Percent ratio of the medium survival time for P388 murine leukemia in CDF1 mice at 1.5 mg/kg; assay type: functional, Mus musculus
[27] = Survivors of CDF1 mice on day 4 after 1st injection of compound at 0.75 mg/kg in six mice; 6/6; assay type: functional, Mus musculus
[28] = Survivors of CDF1 mice on day 4 after 1st injection of compound at 1.5 mg/kg in six mice; 6/6; assay type: functional, Mus musculus
[29] = system: P388; experiment: Percent ratio of the medium survival time for P388 murine leukemia in CDF1 mice at 3 mg/kg; assay type: functional, Mus musculus
[30] = Survivors of CDF1 mice on day 4 after 1st injection of compound 40 at mg/kg in seven mice; 5/7; assay type: functional, Mus musculus
[31] = Survivors of CDF1 mice on day 4 after 1st injection of compound at 5 mg/kg in seven mice; 7/7; assay type: functional, Mus musculus
[32] = system: P388; experiment: Percent ratio of the medium survival time for P388 murine leukemia in CDF1 mice at 2.5 mg/kg; assay type: functional, Mus musculus
[33] = system: P388; experiment: Percent ratio of the medium survival time for P388 murine leukemia in CDF1 mice at 1.25 mg/kg; assay type: functional, Mus musculus
[34] = Survivors of CDF1 mice on day 4 after 1st injection of compound at 1.25 mg/kg in seven mice; 7/7; assay type: functional, Mus musculus
[35] = Survivors of CDF1 mice on day 4 after 1st injection of compound at 2.5 mg/kg in seven mice; 7/7; assay type: functional, Mus musculus
[36] = Survivors of CDF1 mice on day 4 after 1st injection of compound at 10 mg/kg in seven mice; 7/7; assay type: functional, Mus musculus
[37] = Survivors of CDF1 mice on day 4 after 1st injection of compound at 20 mg/kg in seven mice; 7/7; assay type: functional, Mus musculus
[38] = system: P388; experiment: as §1; assay type: functional, Mus musculus
[39] = system: P388; experiment: as §2; assay type: functional, Mus musculus

SMILES | EC50 [7] [µg/mL] | Survival [10] | Survival [11] | Survival [12] | T/C [13] [%] | Survival [14] | T/C [15] [%] | T/C [16] [%] | T/C [18] [%] | Survival [19] | other results
O=C1c2ccccc2C(=O)c2c(NCCNCCO)ccc(NCCNCCO)c21 [AMETANTRONE] | 2.54 (≈ 6.16 µM) |  |  |  |  |  |  |  |  |  | Survival [1]: 6; Survival [2]: 6; T/C [3]: 200%; Survival [4]: 6; Survival [5]: 6; T/C [6]: 240%; T/C [8]: 300%; T/C [9]: 200%
CN(C)CCNc1ccc(NCCNCCO)c2c1C(=O)c1ccccc1C2=O | 0.64 (≈ 1.61 µM) | 6 | 6 | 6 | 151 | 6 | 144 | 173 | 192 | 6 | T/C [17]: 192%
O=C1c2c(O)ccc(O)c2C(=O)c2c(NCCNCCO)ccc(NCCNCCO)c21 [MITOXANTRONE] |  |  |  |  |  |  |  |  |  |  | Survival [20]: 6; Survival [21]: 6; T/C [22]: 118%; T/C [23]: 209%; T/C [24]: 192%; Survival [25]: 6; T/C [26]: 201%; Survival [27]: 6; Survival [28]: 6; T/C [29]: 288%
NCCNc1ccc(NCCNCCO)c2c1C(=O)c1ccccc1C2=O | 2.38 (≈ 6.46 µM) |  |  |  | 300 |  | 200 | 300 | 80 |  | Survival [30]: 5; Survival [31]: 7; T/C [32]: 180%; T/C [33]: 170%; Survival [34]: 7; Survival [35]: 7; Survival [36]: 7; Survival [37]: 7
O=C1c2ccccc2C(=O)c2c(NCCN3CCOCC3)ccc(NCCNCCO)c21 | 2.36 (≈ 5.38 µM) | 6 | 6 | 6 | 132 | 6 |  |  |  | 6 | 
CC(C)(CO)NCCNc1ccc(NCCNCCO)c2c1C(=O)c1ccccc1C2=O | 1.48 (≈ 3.36 µM) |  | 6 |  | 151 | 6 |  |  |  | 6 | Survival [38]: 6; Survival [39]: 6
O=C1c2ccccc2C(=O)c2c(NCCNCCO)ccc(NCCO)c21 | 12.3 (≈ 33.3 µM) | 6 | 6 | 6 | 125 | 6 | 115 | 142 | 127 | 6 | T/C [17]: 144%
